The text below walks through data of patent publication US11274332B2, “Methods of administering 3,4-diaminopyridine” (SERB SA, priority 2011, dated 2022).

As a reminder, the Cmax is the peak of the concentration-time curve.

This data set can be described thus: Example 18 Part 1: single ascending dose PK (5-30 mg) in slow and fast acetylators. The format is in vivo, human. Conditions: for half-life / Cmax: both sexes, human, plasma; for half-life: oral, 5-30 mg, read-out: Mean terminal elimination half-lives; for Cmax: po, single oral doses 5 to 30 mg, read-out: mean Cmax, range over doses. On the procedure:
The following method was used to analyze concentrations of 3,4-diaminopyridine and N-(4-aminopyridin-3-yl)acetamide in plasma and urine samples for the experiments in Example 18. In the LC/MS/MS method, the human plasma and urine samples were extracted using acetonitrile containing 0.1% formic acid. Samples were analyzed by using HPLC with positive ion electrospray MS/MS detection. The column was an Atlantis HILIC Silica column (3 μm, 3×50 mm) at a temperature of 40° C. Mobile phase A was water containing ammonium formate (20 mM) and 0.1% formic acid. Mobile phase B was acetonitrile/isopropanol (90/10; v/v) containing 0.1% formic acid. The flow rate was 0.90 mL/minute. The gradient conditions for human plasma and urine samples were as follows:
The LC/MS/MS method was validated to quantify 3,4-DAP in human plasma in the linear calibration range of 0.500 to 500 ng/mL and from 1.00 to 1000 ng/mL for the 3-N-acetyl metabolite.
The primary objective of the study was to assess the safety and tolerability of 3,4-DAP phosphate after single and multiple doses. The secondary objectives of the study were • Part 1 only: To determine the dose-related PK profile of amifampridine and of 3-N-acetyl amifampridine after single, escalating doses of 3,4-DAP phosphate • Part 2 only: To assess the steady-state plasma PK and accumulation of amifampridine and of 3-N-acetyl amifampridine over multiple days of dosing with 3,4-DAP phosphate An exploratory objective was to examine the overall activity of the N-acetyl transferase enzymes on the metabolism of amifampridine by assessing the PK of amifampridine and 3-N-acetyl amifampridine with phenotypic acetylation activity and genotyping determination of NAT2 gene polymorphisms. Study Design and Plan
This open-label study in healthy subjects (male and female) was conducted in 2 parts. A total of 26 healthy male and female subjects, 12 in Part 1 (at least 5 of each sex), 4 in Part 2 Group 1, and 10 in Part 2 Group 2 (at least 4 of each sex) were enrolled into the study. The same subjects were not enrolled to participate in both parts. Subjects in Part 2 were dosed only after all subjects of Part 1 completed dosing and at least 24-hours of follow-up safety evaluation after the last dose were completed.
All subjects were characterized for their metabolic acetylation phenotype and NAT2 genotype in order to divide subjects into two groups of acetylators. Volunteers were genetically typed for highly variant alleles of the N-acetyl transferase 2 enzyme (NAT2) domain on chromosome 8 (according to Example 16) and were phenotyped for acetylation rates with a caffeine challenge test (according to Example 15a). Approximately equal numbers of slow and fast acetylators (as defined by a caffeine challenge test in Example 15a) were enrolled in each group. In Part 2, very slow acetylators with NAT2 activity (ratio 1, Example 15a) below 0.06 were excluded from participation in the study. In each part of the study, subjects were assessed for PK, safety, and tolerability and all doses were administered within 30 min of ingestion of a meal or a snack.
Part 1 was a dose-proportionality study in 12 healthy subjects each receiving 4 ascending single oral doses of 3,4-DAP phosphate in a sequential manner (5 mg, 10 mg, 20 mg, and 30 mg). For all 12 subjects, the first 3 doses of oral 3,4-DAP phosphate (5-20 mg) were administered on 3 consecutive days (Days 1-3). Two fast and two slow acetylators (as defined by a caffeine challenge test in Example 15a) were selected as the first 4 enrolled subjects (sentinel subjects). For the 2 fast acetylators the 30 mg dose was administered on Day 4. […] Safety and tolerability data collected for all 4 subjects were reviewed and the safety and tolerability results of the 30 mg dose for these 4 sentinel subjects were acceptable. The 30 mg dose was given to the remaining 8 non-sentinel subjects on Day 7. […]

Like-named read-outs stand apart in the source and are kept apart here.

In the case of `Nc1ccncc1N` [3,4-DAP, 3,4-diaminopyridine], for the setting “5 mg single dose”, the “Mean AUC0-t Slow/fast Ratio” value is recorded as 10.4, the “Mean CL/F Slow/fast Ratio” value was 0.114, the “Mean Cmax Slow/fast Ratio” value was 4.50 and the “Mean t1/2 Slow/fast Ratio” value is 3.68. Besides, under “10 mg single dose”, the “Mean AUC0-t Slow/fast Ratio” value worked out at 6.94, the “Mean CL/F Slow/fast Ratio” value was 0.163, the “Mean Cmax Slow/fast Ratio” value is 3.47 and the “Mean t1/2 Slow/fast Ratio” value was found to be 2.15. Moreover, where the note is “20 mg single dose”, the “Mean AUC0-t Slow/fast Ratio” value was 5.75, the “Mean CL/F Slow/fast Ratio” value turned out to be 0.186, the “Mean Cmax Slow/fast Ratio” value amounted to 3.50 and the “Mean t1/2 Slow/fast Ratio” value stood at 2.38. Besides, for the setting “30 mg single dose”, the “Mean AUC0-t Slow/fast Ratio” value amounted to 5.29, the “Mean CL/F Slow/fast Ratio” value came to 0.196, the “Mean Cmax Slow/fast Ratio” value came to 3.51 and the “Mean t1/2 Slow/fast Ratio” value was 1.88. Further, where the note is “fast acetylators”, the half-life was 0.603 to 1.65 h, the “AUC increase over 6-fold dose range (5 to 30 mg)” value is on record as 15.1 fold and the “Cmax increase over 6-fold dose range (5 to 30 mg)” value is recorded as 6.41 fold. Also, for the setting “slow acetylators”, the half-life was 2.22 to 3.11 h, the “AUC increase over 6-fold dose range (5 to 30 mg)” value is 7.64 fold and the “Cmax increase over 6-fold dose range (5 to 30 mg)” value was found to be 5.01 fold. The highest concentration (Cmax) (fast acetylator phenotype) was in the range of 3.98 to 25.5 ng/mL. Also, for the setting “slow acetylator phenotype”, the Cmax was in the range of 17.9 to 89.6 ng/mL.
